Experiment [1] addresses T1, Beta-secretase 1 (Homo sapiens, UniProt P56817). As to the kind of experiment: Inhibition of BACE1 (unknown origin).
In experiment [2] the target is T1, Beta-secretase 1. As to the kind of experiment: Inhibition of Homo sapiens (human) Beta-secretase 1.
Experiment [3] deals with T1, Beta-secretase 1. The experiment can be described thus: Inhibition of BACE1 (unknown origin) at 10 ug/ml after 1 hr by FRET assay.
Experiment [4] can be described thus: Neuroprotective activity in Homo sapiens (human) SH-SY5Y cells assessed as reduction of amyloid beta-induced cell death at 10 ug/ml inubated for 1 hr prior to amyloid beta induction measured after 48 hr by MTT assay. The class given is functional. Set-up: scale not given: the % may be the effect or the level left. (In general: Tetrazolium dyes change colour on reduction, which living cells bring about.)

*1 amine or outer side, *2 acyl side, *3 side chain or, on linkers, in order; H or OH if unused. Where a SMILES comes first, the peptide text is derived from it. [ ]: non-standard residue; d: D form. LeuΨ(S-CHOHCH2)Ala = CC(C)C[C@H](N[*:1])[C@@H](O)C[C@@H](C)C(=O)[*:2]

T1 sequence (P56817 whole entry): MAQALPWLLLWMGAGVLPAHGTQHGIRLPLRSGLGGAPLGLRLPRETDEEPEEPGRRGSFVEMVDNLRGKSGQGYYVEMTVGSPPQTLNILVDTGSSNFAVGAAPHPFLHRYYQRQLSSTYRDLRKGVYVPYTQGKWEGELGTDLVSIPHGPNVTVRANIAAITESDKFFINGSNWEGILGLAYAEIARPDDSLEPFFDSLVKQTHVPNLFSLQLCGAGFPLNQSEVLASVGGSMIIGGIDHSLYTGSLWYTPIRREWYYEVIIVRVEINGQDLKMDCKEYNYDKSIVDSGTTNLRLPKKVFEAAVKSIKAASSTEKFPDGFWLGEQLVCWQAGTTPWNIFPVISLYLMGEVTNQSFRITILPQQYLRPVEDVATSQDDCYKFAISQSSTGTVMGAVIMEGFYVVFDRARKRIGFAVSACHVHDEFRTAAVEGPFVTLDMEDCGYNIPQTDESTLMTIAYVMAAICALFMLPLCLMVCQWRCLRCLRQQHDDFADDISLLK

As to `CC(C)C[C@H](NC(=O)[C@H](CC(N)=O)NC(=O)[C@@H](NC(=O)[C@@H](N)CC(=O)O)C(C)C)[C@@H](O)C[C@@H](C)C(=O)N[C@@H](C)C(=O)N[C@@H](CC(=O)O)C(=O)N[C@@H](Cc1ccccc1)C(=O)O` (H-DVN[LeuΨ(S-CHOHCH2)Ala]ADF-OH), the affinity at Beta-secretase 1 [1], expressed as Ki, was 1.6 nM. Also, the IC50 (commonly the concentration at which inhibition is half-maximal) against Beta-secretase 1 [2] stood at 2 nM.
`O=C(/C=C/c1ccccc1)Nc1nc(-c2ccccc2)cs1`: the inhibition (usually the share of the control response that was lost under treatment) against Beta-secretase 1 [3] amounted to 23.6%.
For the molecule `CCOC(=O)CCC(=O)Nc1nc(-c2ccccc2)cs1`, the inhibition on Beta-secretase 1 [3] was 31.8%. The Activity in experiment [4] was 45.5%.
The molecule `COc1cc(/C=C/C(=O)Nc2nc(-c3ccccc3)cs2)cc(OC)c1` registered an inhibition against Beta-secretase 1 [3] of 24.5%.
At Beta-secretase 1 [3], `O=C(Nc1nc(-c2ccccc2)cs1)c1ccncc1` showed an inhibition of 29.1%. In experiment [4], the Activity worked out at 8.2%.
Regarding `CCOC(=O)CCC(=O)NC1=NC2CCCCC2S1` (stereo not given), at Beta-secretase 1 [3], the inhibition came out at 26.7%. Moreover, in experiment [4], the Activity was 26.1%.

Values taken from ChEMBL document CHEMBL3044565, “Pharmacopore hypothesis generation of BACE-1 inhibitors and pharmacophore-driven identification of potent multi-target neuroprotective agents” (Med Chem Res, 2012).
